Legend:
[1] = test system: acute graft-vs-host disease; assay: Mouse model of acute graft-vs-host disease; assay type: in vivo
Experimental: Efficacy of IL-27 antagonists was assayed in a mouse model of acute graft-vs-host disease (Durie et al., J. Clin. Invest. 94:1333-1338, 1994). Parental mice (C57BL/6; n=12) were euthanized, and their spleens were collected. The pooled spleens were smashed using two glass slides to dissociate splenic cells. Lysis buffer was added to the splenocyte suspension to remove red blood cells. The cells were washed in RPMI 1640 (10% FBS) medium and resuspended in an appropriate amount of PBS to make a cell concentration of 300 million cells/ml. Protein treatments were administered by intraperitoneal injection every other day beginning on day-1 and continuing until day 15. Dexamethasone (DEX) was administered by injection daily on days 0 through 6. On day 0, 75 million donor splenic lymphocytes from B6 mice (250 .micro.l per injection) were injected intravenously into recipient mice (C57BL/6×DBA/2 F1 (BDF1); n=10 per group) mice. Mice were monitored 3 times a week for changes in body weight and any signs of moribundity. Mice that lost >20% of their initial body weight were euthanized. Otherwise, mice were sacrificed 18 days after the cell transfer. Spleens were collected, and a CTL-specific lysis assay using P815 cells was performed as a quantitative measurement of acute GVHD. Furthermore, spleens were stained for T- and B-cell markers, including MHC class I markers (H2^b and H2^d) to look at donor/recipient cell ratio (acute GVHD spleen cells are mostly donor cells). Sera were collected to measure serum level of IgG1, IgG2a, and IgE by ELISA, and cytokine and chemokine levels using a commercially available kit (Luminex Corporation, Austin, Tex.).

P815 cells = assay: CTL-specific lysis assay with splenocytes of GVHD mice; assay type: cell-based, mouse; details: splenocytes of treated animals versus PBS; calcein-labeled P815 targets
Experimental: Efficacy of IL-27 antagonists was assayed in a mouse model of acute graft-vs-host disease (Durie et al., J. Clin. Invest. 94:1333-1338, 1994). Parental mice (C57BL/6; n=12) were euthanized, and their spleens were collected. The pooled spleens were smashed using two glass slides to dissociate splenic cells. Lysis buffer was added to the splenocyte suspension to remove red blood cells. The cells were washed in RPMI 1640 (10% FBS) medium and resuspended in an appropriate amount of PBS to make a cell concentration of 300 million cells/ml. Protein treatments were administered by intraperitoneal injection every other day beginning on day-1 and continuing until day 15. Dexamethasone (DEX) was administered by injection daily on days 0 through 6. […] Mice were monitored 3 times a week for changes in body weight and any signs of moribundity. […] Spleens were collected, and a CTL-specific lysis assay using P815 cells was performed as a quantitative measurement of acute GVHD. […]
For CTL assay, P815 cells (a tumor cell line from mice with the same MHC class as DBA2) were labeled with calcein, then splenocytes from each experimental animal were added to the calcein-labeled P815 cells at effector (splenocytes):target (P815) ratios of 100:1, 33:1, and 10:1. Four hours after incubation at 37° C., supernatants were collected and fluorescence was measured (485 nm/535 nm).

[2] = molecular target: T1, human ligand (single-chain IL27) (Homo sapiens, UniProt Q14213+Q8NEV9); assay: SPR kinetics of soluble receptor with human IL27 ligand; details: binding with human ligand; gp130 not included
T1 construct: amino-terminal peptide tag (N)
T1 sequence (Q14213+Q8NEV9 with tags, fused parts or gaps): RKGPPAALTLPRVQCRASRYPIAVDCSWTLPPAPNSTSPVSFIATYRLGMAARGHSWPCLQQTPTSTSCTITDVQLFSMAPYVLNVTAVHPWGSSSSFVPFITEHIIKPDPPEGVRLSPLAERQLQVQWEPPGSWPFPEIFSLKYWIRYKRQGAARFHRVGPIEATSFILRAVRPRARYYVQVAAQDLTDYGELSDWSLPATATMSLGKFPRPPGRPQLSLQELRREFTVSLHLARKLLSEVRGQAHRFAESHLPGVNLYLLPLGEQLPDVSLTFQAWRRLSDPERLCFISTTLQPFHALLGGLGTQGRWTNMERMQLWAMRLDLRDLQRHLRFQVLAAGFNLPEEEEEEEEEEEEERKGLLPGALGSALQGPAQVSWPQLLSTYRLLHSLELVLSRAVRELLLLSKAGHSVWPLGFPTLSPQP
Experimental: Kinetic rate and affinity constant values for the mouse (IL27RAm(mFc1), Example 3) and human (IL27RA-Fc5, Example 4) soluble receptors were obtained by surface plasmon resonance (SPR) using an automated instrument (BIACORE 3000; Biacore International AB, Uppsala, Sweden). The mouse soluble receptor was tested against mouse ligand (lot A1418F), and the human soluble receptor was tested against both mouse (A1426F) and human (A1534F) ligands. For determination of the kinetic rate constants for the receptor-ligand interactions, the gp130 molecule was not included as part of the receptor complex.
The IL27 ligands used in this study were single-chain molecules comprising EBI3 connected by its C-terminus to the N-terminus of IL-27 p28 via a polypeptide linker. Each of the ligands included an amino-terminal peptide tag.
For the mouse IL27RA study, the soluble receptor was captured onto the chip surface by an isotype-specific anti-mouse Fc antibody (obtained from Jackson ImmunoResearch Laboratories, Inc., West Grove, Pa.) covalently immobilized to the chip (BIACORE CM5 chip) using the standard amine coupling protocol specified by the instrument manufacturer. […]
All data were assessed using software provided with the instrument (BIACORE Evaluation software v. 3.2). […]

ka [2]: 1e+07 M⁻¹ s⁻¹
kd [2]: 0.0019 s⁻¹
Substance: human IL-27RA-Fc5: human IL27RA extracellular domain (amino acids 1 to 512 of SEQ ID NO:5) fused to Fc5, effector minus human gamma1 Fc; SEQ ID NO:3
colon length shortening ([1]; mouse, in vivo): did prevent colon length shortening
splenomegaly ([1]; mouse, in vivo): did not prevent splenomegaly
maintenance of host spleen cells, CD4+ T cells, and Treg cells ([1]; proteins 100 µl of 1 mg/ml IP every other day, day -1 to 15, DEX daily days 0-6, day 18): maintained host spleen cells, CD4+ T cells, and Treg cells
Body weight loss ([1]; versus PBS controls): not severe and was significantly less than in PBS controls
CTL activity (P815 cells): reduced CTL activity compared to PBS
